# Reference: patent publication US8431596B2 (Cancer Research Technology Limited, priority 2007, dated 2013)
# Biological target: T1, AXL (human catalytic domain) (Homo sapiens, UniProt P30530)
# T1 construct: purchased Upstate Ltd. 14-512
# T1 sequence (P30530 473-894): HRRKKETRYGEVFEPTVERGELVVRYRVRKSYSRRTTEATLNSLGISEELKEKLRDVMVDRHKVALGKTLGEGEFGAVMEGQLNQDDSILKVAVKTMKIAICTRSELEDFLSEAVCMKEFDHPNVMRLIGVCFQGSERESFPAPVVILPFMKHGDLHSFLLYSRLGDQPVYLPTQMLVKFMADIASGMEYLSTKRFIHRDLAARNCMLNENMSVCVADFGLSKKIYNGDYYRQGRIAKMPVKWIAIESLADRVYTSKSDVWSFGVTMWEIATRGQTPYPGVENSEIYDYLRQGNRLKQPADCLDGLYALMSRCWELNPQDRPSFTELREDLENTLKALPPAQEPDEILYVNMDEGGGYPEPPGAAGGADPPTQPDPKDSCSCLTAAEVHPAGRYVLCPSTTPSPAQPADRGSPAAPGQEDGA
# Assay: AXL (human catalytic domain) Enzyme Activity Assay (IMAP fluorescence polarisation)
# Assay type: biochemical
# Procedure, shortened: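 Recombinant human AXL isoform 1 (aa473-894; final 15 nM) phosphorylated 100 nM fluorescein-CSK-tide with 150 μM ATP (KM) in HEPES pH 7.0/MgCl2/DTT buffer for 60 min at room temperature. IMAP fluorescence polarisation read after overnight binding; IC50 from 10-point 4-parameter logistic fits.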
# [1] = first data set, recombinant AXL isoform 1 aa473-894, 150 μM ATP
# [2] = further data set (WW-001 through WW-169, XX-001 through XX-469, YY-001 through YY-016, ZZ-001 through ZZ-003), 150 μM ATP
SMILES,IC50 [1] [µM],IC50 [2] [µM]
COc1ccc(-c2cccc3nc(NC(=O)CC4CC4)nn23)cc1 [WW-038],1 to 10,1 to 10
CNCCOc1ccc(Nc2nc3cccc(-c4ccc5c(c4)OCO5)n3n2)cc1 [XX-049],< 1,0.1 to 1
Cc1cc(C(=O)Nc2ccc(-c3cccc4nc(Nc5ccc(OCCN6CCCC6)cc5)nn34)cc2)on1 [XX-251],,0.1 to 1
COc1ccc(-c2cccc3nc(Nc4cccc(N(C)C(=O)C(C)N5CCCC5)c4)nn23)cc1 (stereo not shown) [XX-390],,≤ 0.1
O=C(Nc1nc2cccc(-c3cnc4ccccc4c3)n2n1)C1CC1 [WW-085],1 to 10,1 to 10
c1ccc(Oc2ccc(-c3cccc4nc(Nc5ccc(OCCN6CCCC6)cc5)nn34)cc2)cc1 [XX-247],,0.1 to 1
c1cc(-c2ccc(NCc3ccoc3)cc2)n2nc(Nc3ccc(OCCN4CCCC4)cc3)nc2c1 [XX-268],,0.1 to 1
CN1CCN(C(=O)c2ccc(Nc3nc4cccc(-c5ccc6c(c5)OCCO6)n4n3)cc2)CC1 [XX-111],,0.1 to 1
"COc1cccc(COc2ccc(-c3cccc4nc(NC(=O)C5CC5)nn34)cc2)c1 [WW-123, Cyclopropanecarboxylic acid {5-[4-(3-methoxy-benzyloxy)-phenyl]-[1,2,4]triazolo[1,5-a]pyridin-2-yl}-amide]",1 to 10,1 to 10
CN(C)CCOc1ccc(Nc2nc3cccc(-c4ccc5c(c4)CCO5)n3n2)cc1 [XX-053],< 1,≤ 0.1
COc1ccc(-c2nccc3nc(NC(=O)C4CC4)nn23)cc1 [ZZ-003],,1 to 10
CCN(CC)CCCOc1ccc(Nc2nc3cccc(-c4ccc5c(c4)OCCO5)n3n2)cc1 [XX-329],,0.1 to 1
"CN(C(=O)OC(C)(C)C)c1ccc(-c2cccc3nc(NC(=O)C4CC4)nn23)cc1 [WW-119, {4-[2-(cyclopropanecarbonyl-amino)-[1,2,4]triazolo[1,5-a]pyridin-5-yl]-phenyl}-methyl-carbamic acid tert-butyl ester]",1 to 10,1 to 10
"O=C(Nc1ccccc1)Nc1cccc(-c2cccc3nc(Nc4ccc(OCCN5CCCC5)cc4)nn23)c1 [XX-174, 1-Phenyl-3-(3-{2-[4-(2-pyrrolidin-1-yl-ethoxy)-phenylamino]-[1,2,4]triazolo[1,5-a]pyridin-5-yl}-phenyl)-urea]",,0.1 to 1
O=C(Nc1ccc(-c2cccc3nc(Nc4ccc(OCCN5CCCC5)cc4)nn23)cc1)c1ccno1 [XX-250],,0.1 to 1
c1cc(-c2ccc3c(c2)OCCO3)n2nc(Nc3ccc(OCCCN4CCCCC4)cc3)nc2c1 [XX-419],,0.1 to 1
CNCCCOc1cccc(Nc2nc3cccc(-c4ccc5c(c4)OCCO5)n3n2)c1 [XX-069],< 1,≤ 0.1

SMILES,IC50 [1] [µM],IC50 [2] [µM]
"CCS(=O)(=O)n1cc(-c2cccc3nc(NC(=O)C4CC4)nn23)cn1 [WW-147, Cyclopropanecarboxylic acid [5-(1-ethanesulfonyl-1H-pyrazol-4-yl)-[1,2,4]triazolo[1,5-a]pyridin-2-yl]-amide]",1 to 10,1 to 10
COc1ccc(-c2cccc3nc(Nc4ccc(OCCN)cc4)nn23)cc1 [XX-046],< 1,≤ 0.1
COc1ccc(-c2cccc3nc(Nc4ccc(OC[C@H](c5ccccc5)N5CCCC5)cc4)nn23)cc1 [XX-413],,0.1 to 1
Nc1cccc(-c2cccc3nc(NC(=O)C4CC4)nn23)c1 [WW-054],< 1,0.1 to 1
NC(=O)c1ccc(-c2cccc3nc(NC(=O)C4CC4)nn23)cc1 [WW-019],1 to 10,1 to 10
C[C@@H](N)COc1ccc(Nc2nc3cccc(-c4ccc5c(c4)OCCO5)n3n2)cc1 [XX-138],,0.1 to 1
COc1ccc(-c2cccc3nc(NC(=O)C4CC4)nn23)cc1C [WW-094],< 1,0.1 to 1
Fc1ccc(-c2cccc(-c3cccc4nc(Nc5ccc(OCCN6CCCC6)cc5)nn34)c2)cc1 [XX-467],,1 to 10
CN1CCN(CCC(=O)Nc2nc3cccc(-c4ccc5c(c4)OCCO5)n3n2)CC1 [WW-169],,1 to 10
COCc1ccc(-c2cccc3nc(NC(=O)C4CC4)nn23)cc1 [WW-016],1 to 10,1 to 10
O=C(Nc1nc2cccc(NCc3cccc(Cl)c3)n2n1)C1CC1 [WW-081],1 to 10,1 to 10
COc1c(C)cc(-c2cccc3nc(NC(=O)C4CC4)nn23)cc1C [WW-095],1 to 10,1 to 10
Cc1ccc2sc(-c3cccc4nc(Nc5ccc(OCCN6CCCC6)cc5)nn34)cc2c1 [XX-214],,0.1 to 1
O=C(CCN1CCCCC1)Nc1cccc(Nc2nc3cccc(-c4ccc5c(c4)OCCO5)n3n2)c1 [XX-125],,0.1 to 1
O=C(Nc1nc2cccc(-c3ccc(O)c(F)c3)n2n1)C1CC1 [WW-096],< 1,0.1 to 1
Cn1ccc2cc(-c3cccc4nc(NC(=O)C5CC5)nn34)ccc21 [WW-066],< 1,0.1 to 1
CSc1ccc(-c2cccc3nc(NC(=O)C4CC4)nn23)cc1 [WW-136],1 to 10,1 to 10

# Next, values leading:
IC50 [1] [µM],IC50 [2] [µM],SMILES
,0.1 to 1,c1csc(SCCn2cc(-c3cccc4nc(Nc5ccc(OCCN6CCCC6)cc5)nn34)cn2)c1 [XX-426]
,0.1 to 1,"c1ccc(Cn2cc(-c3cccc4nc(Nc5ccc(OCCN6CCCC6)cc5)nn34)cn2)cc1 [XX-193, [5-(1-Benzyl-1H-pyrazol-4-yl)-[1,2,4]triazolo[1,5-a]pyridin-2-yl]-[4-(2-pyrrolidin-1-yl-ethoxy)-phenyl]-amine]"
,1 to 10,COc1ccc(-c2cccc3nc(Nc4ccc(OCCN5CCCC5)cc4)nn23)cc1OC [XX-245]
,1 to 10,CCCCNC(=O)c1cccc(-c2cccc3nc(Nc4ccc(OCCN5CCCC5)cc4)nn23)c1 [XX-301]
,0.1 to 1,c1cc(-c2ccsc2)n2nc(Nc3ccc(OCCN4CCCC4)cc3)nc2c1 [XX-201]
,1 to 10,Cn1ccnc1CNc1cccc(-c2cccc3nc(Nc4ccc(OCCN5CCCC5)cc4)nn23)c1 [XX-258]
,0.1 to 1,c1ccc(-c2cccc3nc(Nc4ccc(OCCN5CCCC5)cc4)nn23)cc1 [XX-159]
,0.1 to 1,Cn1ccc2cc(-c3cccc4nc(Nc5ccc(OCCN6CCCC6)cc5)nn34)ccc21 [XX-439]
,1 to 10,Cn1nnnc1SCCn1cc(-c2cccc3nc(Nc4ccc(OCCN5CCCC5)cc4)nn23)cn1 [XX-428]
,0.1 to 1,FC(F)(F)Oc1ccc(-c2cccc3nc(Nc4ccc(OCCN5CCCC5)cc4)nn23)cc1 [XX-244]
,≤ 0.1,c1cc(-c2cnn(CC3CC3)c2)n2nc(Nc3ccc(OCCN4CCCC4)cc3)nc2c1 [XX-316]
,1 to 10,c1cc(-c2cnn(CCN3CCOCC3)c2)n2nc(Nc3ccc(OCCN4CCCC4)cc3)nc2c1 [XX-272]
,0.1 to 1,Cc1ccc(CS(=O)(=O)n2cc(-c3cccc4nc(Nc5ccc(OCCN6CCCC6)cc5)nn34)cn2)cc1 [XX-295]
,≤ 0.1,CCS(=O)(=O)n1cc(-c2cccc3nc(Nc4ccc(OCCN5CCCC5)cc4)nn23)cn1 [XX-374]
,0.1 to 1,CC(c1ccc(-c2cccc3nc(Nc4ccc(OCCN5CCCC5)cc4)nn23)cc1)N(C)C (stereo not shown) [XX-248]
,0.1 to 1,c1cc(-c2cnn(CC3CCCO3)c2)n2nc(Nc3ccc(OCCN4CCCC4)cc3)nc2c1 (stereo not shown) [XX-344]
,0.1 to 1,c1cc(-c2ccc(-c3ccoc3)cc2)n2nc(Nc3ccc(OCCN4CCCC4)cc3)nc2c1 [XX-185]
,≤ 0.1,c1cc(-c2cn[nH]c2)cc(-c2cccc3nc(Nc4ccc(OCCN5CCCC5)cc4)nn23)c1 [XX-167]
